Measurements: patent US20100144672A1, “PYRIMIDINYL PYRAZOLES AS INSECTICIDES AND PARASITICIDE ACTIVE AGENTS” (BAYER CROPSCIENCE AG, priority 2006, published 2010)

Columns and labels:
Format in all cases: in vivo
[1] = system: larvae of the mustard beetle (Phaedon cochleariae); assay: Phaedon test (PHAECO spray treatment); settings: 168 h, application rate 500 g/ha, after 7 d, read-out: activity (effect in %, beetle larvae killed)
Protocol: Phaedon Test ([…] Spray Treatment) [table] To produce a suitable preparation of active compound, 1 part by weight of active compound is mixed with the stated amounts of solvents and emulsifier, and the concentrate is diluted with emulsifier-containing water to the desired concentration. Discs of chinese cabbage (Brassica pekinensis) are sprayed with an active compound preparation of the desired concentration and, after drying, populated with larvae of the mustard beetle (Phaedon cochleariae). After the desired period of time, the effect in % is determined 100% means that all beetle larvae have been killed; 0% means that none of the beetle larvae have been killed.

Lucilia cuprina larvae = assay: Lucilia cuprina test (LUCICU); settings: 48 h, application rate 100 ppm, after 2 d, treated horse meat, read-out: activity (kill in %, larvae)
Protocol: Lucilia cuprina Test (LUCICU) Solvent: dimethyl sulphoxide To produce a suitable preparation of active compound, 1 part by weight of active compound is mixed with the stated amount of water, and the concentrate is diluted with water to the desired concentration. Containers containing horse meat treated with the active compound preparation of the desired concentration are populated with Lucilia cuprina larvae. After the desired period of time, the kill in % is determined 100% means that all larvae have been killed; 0% means that none of the larvae have been killed.

[2] = system: caterpillars of the army worm (Spodoptera frugiperda); assay: Spodoptera frugiperda test (SPODFR spray treatment); settings: 168 h, application rate 500 g/ha, after 7 d, read-out: activity (effect in %, caterpillars killed)
Protocol: Spodoptera frugiperda Test (SPODFR Spray Treatment) [table] To produce a suitable preparation of active compound, 1 part by weight of active compound is mixed with the stated amounts of solvents and emulsifier, and the concentrate is diluted with emulsifier-containing water to the desired concentration. Discs of maize leaves (Zea mays) are sprayed with an active compound preparation of the desired concentration and, after drying, populated with caterpillars of the army worm (Spodoptera frugiperda). After the desired period of time, the effect in % is determined 100% means that all caterpillars have been killed; 0% means that none of the caterpillars have been killed.

Compound	pest or weed control at 500 g/ha [1]	pest or weed control at 100 ppm (Lucilia cuprina larvae)	pest or weed control at 500 g/ha [2]
COc1ccc(-c2c(C(F)(F)F)nn(-c3ncccn3)c2N)cc1 [Example 5-22]	≥ 80%	≥ 80%	–
Nc1c(-c2ccc(F)c(Cl)c2)c(C(F)(F)F)nn1-c1ncccn1 [Example 1-79, 4-(3-chloro-4-fluorophenyl)-1-pyrimidin-2-y1-3-(trifluoromethyl)-1H-pyrazole-5-amine]	≥ 80%	≥ 80%	≥ 80%
CCNc1c(-c2ccc(Cl)cc2)c(C(F)(F)F)nn1-c1ncccn1 [Example 12-7, 4-(4-chlorophenyl)-N-ethyl-l-pyrimidin-2-yl-3-(trifluoromethyl)-1H-pyrazole-5-amine]	≥ 80%	≥ 80%	≥ 80%
Nc1c(-c2ccc(Br)cc2)c(C(F)(F)F)nn1-c1ncccn1 [Example 1-9, 4-(4-bromophenyl)-1-pyrimidin-2-yl-3-(trifluoromethyl)-1H-pyrazole-5-amine]	≥ 80%	≥ 80%	≥ 80%
Nc1c(-c2ccc(SC(F)(F)F)cc2)c(C(F)(F)F)nn1-c1ncccn1 [Example 5-62]	≥ 80%	≥ 80%	–
Nc1c(-c2cc(Cl)cc(C(F)(F)F)c2)c(C(F)(F)F)nn1-c1ncccn1 [Example 3-25, 4-(3-chloro-5-trifluoromethylphenyl)-2-pyrimidin-2-yl-5-trifluoromethyl-2H-pyrazol-3-ylamine]	≥ 80%	≥ 80%	≥ 80%
Nc1c(-c2ccc(Cl)c(Cl)c2)c(C(F)(F)F)nn1-c1ncccn1 [Example 1-80, 4-(3,4-dichlorophenyl)-1-pyrimidin-2-yl-3-(trifluoromethyl)-1H-pyrazole-5-amine]	≥ 80%	≥ 80%	≥ 80%
Nc1c(-c2ccc(Cl)cc2)c(C(F)(F)F)nn1-c1ncccn1 [Example 1-6, 4-(4-chlorophenyl)-1-pyrimidin-2-yl-3-(trifluoromethyl)-1H-pyrazole-5-amine]	≥ 80%	≥ 80%	≥ 80%
FC(F)(F)c1nn(-c2ncccn2)c(Cl)c1-c1ccc(Cl)cc1 [Example 14-7]	≥ 80%	≥ 80%	≥ 80%
CC(=O)N(C(C)=O)c1c(-c2ccc(Cl)c(Cl)c2)c(C(F)(F)F)nn1-c1ncccn1 [Example 29-37, N,N-diacetyl-4-(3,4-dichlorophenyl)-1-pyrimidin-2-yl-3-(trifluoromethyl)-1H-pyrazole-5-amine]	≥ 80%	–	≥ 80%
